{"source": "patent US10450549B2", "about": "“Aryloxyphenoxypropionate tolerance in turfrgass species and use of AAD1 as a selectable marker” (Dow AgroSciences, LLC, priority 2004, dated 2019)", "key": {"[1]": {"tested_on": "pDAS1421 T0 corn", "assay": "Whole plant quizalofop screening of T0 corn lineages containing AAD1 (v3) and AHAS (pDAS1421)", "assay_type": "in vivo", "conditions": "number of lineages", "protocol": "Seventy-two Agrobacterium-transformed events were selected on various levels of R-haloxyfop acid and R-cyhalofop acid in vitro. Twenty-two callus samples were analyzed by Southern blot analysis for stable integration of AAD1 (v3) into the genome as described previously.\nA minimum six regenerated clonal lineages per event were moved to soil in the greenhouse and screened using a track sprayer as previously described to apply 35 g ae/ha quizalofop when 2-4 new, normal leaves had emerged (see section 8.3.3). Presence of AAD1 protein on a Western blot correlated perfectly with herbicide resistance in the T0 generation regardless of which AOPP herbicide was used for selection. There is no negative impact of the second HTC gene (AHAS) on the function of the AAD1 (v3)."}, "[2]": {"tested_on": "AAD1-transformed T0 2095-2 creeping bentgrass events", "assay": "Quizalofop-p-ethyl postemergence on AAD1 (pDAB5042) creeping bentgrass line 2095-2", "assay_type": "in vivo, Agrostis stolonifera", "protocol": "Selected T0 plants were sprayed with quizalofop-p-ethyl (Assure II®, DUPONT, Wilmington, Del.) at rates ranging from 60 to 2,240 g ae/ha. […] This rate also controls susceptible monocot weed species. Measured amounts were placed individually in 25 mL glass vials and dissolved in a 4 mL volume of 1.0% (v/v) Agri-Dex® Crop Oil Concentrate (COC) from HELENA CHEMICAL (Collierville, Tenn.). Application solutions were prepared by serial dilution of the highest rate applied. One-half the volume of the highest rate stock solution (2 mL) was transferred to a clean 25 mL vial containing an equal volume of 1% COC and the diluted solution was mixed. Additional dilutions were prepared similarly by removing one-half the volume of the previous concentration (2 mL), and adding to an equal volume of 1% COC and mixing. When preparing the lowest concentration, the remaining one-half volume was discarded. All 2 mL stock solutions were further diluted by adding 10 mL aqueous mixture of 1.0% (v/v) COC, so that the final spray solutions were 12 mL in volume and contained 1.0% (v/v) COC.\n(§1) Spray solutions were applied to the plant material with an overhead Mandel™ track sprayer equipped with a 8002E nozzles calibrated to deliver 187 L/ha over an application area of 0.503 square meters (m^2) at a spray height of 18 inches (46 cm) above average plant canopy height. Control plants were sprayed in the same manner with the COC blank.\nThe treated plants and control plants were placed in a greenhouse, and watered by sub-irrigation to prevent wash-off of the test compounds. At various times after application, the condition of the test plants as compared with that of the untreated plants was determined visually and scored on a scale of 0 to 100 percent (where 0 corresponds to no injury or growth inhibition and 100 corresponds to complete kill). Regenerated, non-transformed (NT) ‘Crenshaw’ or elite line 2905-2 creeping bentgrass plants and/or seed-derived clonally propagated plants served as quizalofop sensitive controls. […]"}, "[3]": {"tested_on": "non-transformed (NT) ‘Shamrock’ Kentucky bluegrass", "assay": "Haloxyfop-R-methyl on non-transformed Kentucky bluegrass controls", "assay_type": "in vivo", "conditions": "similar treatment regimes", "protocol": "The selected T0 plants were sprayed with haloxyfop-R-methyl (Gallant Super®, DOW AGROSCIENCES, INC.) at rates ranging from 140 to 560 g ae/ha. […] This rate would also control susceptible monocot weed species. Measured amounts were placed individually in 25 mL glass vials and dissolved in a 12 mL volume of 1.0% (v/v) Agri-Dex® Crop Oil Concentrate (COC).\nas §1\nThe treated plants and control plants were placed in a greenhouse and watered by sub-irrigation to prevent wash-off of the test compounds. At various times after application, the condition of the test plants as compared with that of the untreated plants was determined visually and scored on a scale of 0 to 100 percent, where 0 corresponds to no injury or growth inhibition, and 100 corresponds to complete kill. Regenerated, non-transformed (NT) ‘Shamrock’ Kentucky bluegrass plants and/or seed-derived clonally propagated plants served as haloxyfop sensitive controls."}, "[4]": {"tested_on": "transformed-control line containing PAT and Cry1F", "assay": "Foliar-applied auxinic herbicides on control (PAT/Cry1F, wildtype) Arabidopsis, % injury 14 DAT", "assay_type": "in vivo, Arabidopsis thaliana", "conditions": "PatCry1f - Control", "in_short": "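Homozygous T4 AAD1 (v3) Arabidopsis (line AAD1.01.315.076) and a PAT/Cry1F transformed control were grown in pots and track-sprayed foliarly at 187 L/ha with herbicides formulated in 200 mM Hepes pH 7.5. Injury was rated 14 days after treatment, with 3-4 replicates averaged over two experiments.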"}}, "data": [{"compound": "C[C@@H](Oc1ccc(Oc2cnc3cc(Cl)ccc3n2)cc1)C(=O)O", "note": "[quizalofop]", "values": [{"measurement": "Assessment of T0 lineages resistant to 35 g ae/ha quizalofop: Resistant", "setting": "[1]; event 1421[3]-036", "value": 8}, {"measurement": "Assessment of T0 lineages resistant to 35 g ae/ha quizalofop: Sensitive", "setting": "[1]; event 1421[3]-036", "value": 0}, {"measurement": "Assessment of T0 lineages resistant to 35 g ae/ha quizalofop: Resistant", "setting": "[1]; event 1421[4]-031", "value": 9}, {"measurement": "Assessment of T0 lineages resistant to 35 g ae/ha quizalofop: Sensitive", "setting": "[1]; event 1421[4]-031", "value": 0}, {"measurement": "Assessment of T0 lineages resistant to 35 g ae/ha quizalofop: Resistant", "setting": "[1]; event 1421[4]-032", "value": 8}, {"measurement": "Assessment of T0 lineages resistant to 35 g ae/ha quizalofop: Sensitive", "setting": "[1]; event 1421[4]-032", "value": 0}, {"measurement": "Assessment of T0 lineages resistant to 35 g ae/ha quizalofop: Resistant", "setting": "[1]; event 1421[4]-033", "value": 12}, {"measurement": "Assessment of T0 lineages resistant to 35 g ae/ha quizalofop: Sensitive", "setting": "[1]; event 1421[4]-033", "value": 0}, {"measurement": "Assessment of T0 lineages resistant to 35 g ae/ha quizalofop: Resistant", "setting": "[1]; event 1421[4]-034", "value": 8}, {"measurement": "Assessment of T0 lineages resistant to 35 g ae/ha quizalofop: Sensitive", "setting": "[1]; event 1421[4]-034", "value": 0}, {"measurement": "Assessment of T0 lineages resistant to 35 g ae/ha quizalofop: Resistant", "setting": "[1]; event 1421[4]-035", "value": 6}, {"measurement": "Assessment of T0 lineages resistant to 35 g ae/ha quizalofop: Sensitive", "setting": "[1]; event 1421[4]-035", "value": 0}, {"measurement": "Assessment of T0 lineages resistant to 35 g ae/ha quizalofop: Resistant", "setting": "[1]; event 1421[21]-016", "value": 8}, {"measurement": "Assessment of T0 lineages resistant to 35 g ae/ha quizalofop: Sensitive", "setting": "[1]; event 1421[21]-016", "value": 0}, {"measurement": "Assessment of T0 lineages resistant to 35 g ae/ha quizalofop: Resistant", "setting": "[1]; event 1421[22]-020", "value": 8}, {"measurement": "Assessment of T0 lineages resistant to 35 g ae/ha quizalofop: Sensitive", "setting": "[1]; event 1421[22]-020", "value": 0}, {"measurement": "Assessment of T0 lineages resistant to 35 g ae/ha quizalofop: Resistant", "setting": "[1]; event 1421[22]-022", "value": 8}, {"measurement": "Assessment of T0 lineages resistant to 35 g ae/ha quizalofop: Sensitive", "setting": "[1]; event 1421[22]-022", "value": 0}, {"measurement": "Assessment of T0 lineages resistant to 35 g ae/ha quizalofop: Resistant", "setting": "[1]; event 1421[22]-023", "value": 8}, {"measurement": "Assessment of T0 lineages resistant to 35 g ae/ha quizalofop: Sensitive", "setting": "[1]; event 1421[22]-023", "value": 0}, {"measurement": "mean injury, pDAB5042 2095-2 events", "setting": "[2]; 120, 480 and 960 g ae/ha, 22 to 50 DAA", "value": "less than 25%"}, {"measurement": "injury of 48 of the 53 individual 2095-2 events", "setting": "[2]; 120 g ae/ha", "value": "≤ 20", "unit": "%"}, {"measurement": "injury of four 2095-2 events", "setting": "[2]; 120 g ae/ha", "value": "between about 25% and 35% injury"}]}, {"compound": "CC(Oc1ccc(Oc2ncc(C(F)(F)F)cc2Cl)cc1)C(=O)O", "note": "(stereo not shown) [haloxyfop]", "values": [{"measurement": "injury of control, non-transgenic plants", "setting": "[3]", "value": "60-100%"}]}, {"compound": "Nc1c(Cl)c(F)nc(OCC(=O)O)c1Cl", "note": "[Fluroxypyr]", "values": [{"measurement": "Ave % Injury 14DAT", "setting": "[4]; 50 g ae/ha foliar", "value": 76, "unit": "%"}, {"measurement": "Ave % Injury 14DAT", "setting": "[4]; 200 g ae/ha foliar", "value": 85, "unit": "%"}, {"measurement": "Ave % Injury 14DAT", "setting": "[4]; 800 g ae/ha foliar", "value": 85, "unit": "%"}, {"measurement": "Ave % Injury 14DAT", "setting": "[4]; 3200 g ae/ha foliar", "value": 95, "unit": "%"}]}]}
